Experimental data published in PubChem BioAssay (NCI).
“And” between values parts separate entries of the source, which are not always exact repeats. Equal entries are not always repeated.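 Growth conditions: 96-well plates. Treatment: test compound, 48 hours, 5 concentrations. Analysis: linear interpolation between bracketing concentrations; unreached endpoints set to highest concentration. Here, GI50 denotes the concentration required for 50% inhibition of growth. Definition used: TGI = concentration required for complete inhibition of growth.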

Assays:
Assay in all cases: growth of human tumour cells (NCI), 48 h
[1] = tested on: MDA-MB-231 breast
[2] = tested on: HOP-92 NSCLC
[3] = tested on: HT29 colon
[4] = tested on: EKVX NSCLC
[5] = tested on: SF-539 CNS
[6] = tested on: HS 578T breast
[7] = tested on: HCT-116 colon
[8] = tested on: NCI/ADR-RES ovarian
[9] = tested on: SR leukemia
[10] = tested on: UACC-62 melanoma

## CCN1CCN(Cc2ccc(-c3cc4c(N[C@H](C)c5ccccc5)ncnc4[nH]3)cc2)CC1
[1]
  GI50: 2.08 µM and 2.88 µM
  TGI: 8.3 µM and > 10 µM
[2]
  GI50: 0.167 µM and 0.523 µM
  TGI: 4.21 µM and > 10 µM
[3]
  GI50: 1.99 µM and 2.41 µM
  TGI: 8.77 µM and > 10 µM
[4]
  GI50: 0.308 µM
  TGI: > 10 µM
[5]
  GI50: 2.07 µM and 1.9 µM
  TGI: 5.67 µM and 5.14 µM
[6]
  GI50: 2.1 µM and 0.763 µM
  TGI: 9.79 µM and 5.24 µM
[7]
  GI50: 2.8 µM and 2.87 µM
  TGI: 14.4 µM and > 10 µM
[8]
  GI50: 4.69 µM and 4.78 µM
  TGI: 29.9 µM and > 10 µM
[9]
  GI50: 2.34 µM and 2.05 µM
  TGI: 6.17 µM and 4.92 µM
[10]
  GI50: 2.09 µM and 3.75 µM
  TGI: 5.36 µM and > 10 µM

## CCCCON(OC(=O)c1ccccc1)C(=O)c1ccccc1
[1]
  GI50: > 100 µM
  TGI: > 100 µM
[2]
  GI50: > 100 µM
  TGI: > 100 µM
[3]
  GI50: > 100 µM
  TGI: > 100 µM
[4]
  GI50: > 100 µM
  TGI: > 100 µM
[5]
  GI50: > 100 µM
  TGI: > 100 µM
[6]
  GI50: > 100 µM
  TGI: > 100 µM
[7]
  GI50: > 100 µM
  TGI: > 100 µM
[8]
  GI50: > 100 µM
  TGI: > 100 µM
[9]
  GI50: 30.3 µM
  TGI: > 100 µM
[10]
  GI50: > 100 µM
  TGI: > 100 µM

## Clc1ccc(CSC(Cn2ccnc2)c2ccc(Cl)cc2Cl)cc1 (stereo unspecified)
[1]
  GI50: 1.51 µM
  TGI: 2.98 µM
[2]
  GI50: 0.914 µM
  TGI: 2.44 µM
[3]
  GI50: 1.44 µM
  TGI: 2.81 µM
[4]
  GI50: 1.53 µM
  TGI: 4.55 µM
[5]
  GI50: 1.73 µM
  TGI: 3.36 µM
[6]
  GI50: 1.97 µM
  TGI: 5.02 µM
[7]
  GI50: 1.26 µM
  TGI: 2.51 µM
[8]
  GI50: 1.46 µM
  TGI: 3.05 µM
[9]
  GI50: 2.3 µM
  TGI: 5.8 µM
[10]
  GI50: 1.17 µM
  TGI: 2.43 µM

## CC12CCC3C(CCC4Cc5[nH]c6ccccc6c5CC43C)C1CCC2O (stereo unspecified)
[1]
  GI50: 2.09 µM
  TGI: 7.16 µM
[2]
  GI50: > 100 µM
  TGI: > 100 µM
[3]
  GI50: 1.58 µM
  TGI: > 27.1 µM
[4]
  GI50: 3.69 µM
  TGI: > 100 µM
[5]
  GI50: 1.2 µM
  TGI: 3.77 µM
[6]
  GI50: 0.362 µM
  TGI: 1.88 µM
[7]
  GI50: 0.501 µM
[8]
  GI50: 0.481 µM
  TGI: 5.54 µM
[9]
  GI50: 0.342 µM
  TGI: 1.32 µM
[10]
  GI50: 0.284 µM
  TGI: 2.35 µM

## COc1ccc2[nH]c(=O)c3c4ccccc4cn3c2c1
[1]
  GI50: 1.24 µM
  TGI: 5.85 µM
[2]
  GI50: 2 µM
  TGI: 8.37 µM
[3]
  GI50: 0.375 µM
  TGI: 1.44 µM
[4]
  GI50: 0.878 µM
  TGI: 12.4 µM
[5]
  GI50: 0.657 µM
  TGI: 2.53 µM
[6]
  GI50: 0.25 µM
  TGI: 0.775 µM
[7]
  GI50: 0.351 µM
  TGI: 1.38 µM
[8]
  GI50: 0.308 µM
  TGI: 1.29 µM
[9]
  GI50: 0.125 µM
  TGI: 0.842 µM
[10]
  GI50: 0.345 µM
  TGI: 1.4 µM

## CCOC(=O)c1ccc2[nH]c(-c3ccc(S(=O)(=O)F)cc3)cc(=O)c2c1
[1]
  TGI: > 100 µM
[2]
  TGI: > 100 µM
[3]
  TGI: > 100 µM
[4]
  TGI: > 100 µM
[5]
  TGI: > 100 µM
[6]
  TGI: > 100 µM
[7]
  TGI: 76.9 µM
[8]
  TGI: > 100 µM
[9]
  TGI: > 100 µM
[10]
  TGI: 76.2 µM

## Cn1cc(-c2ccc3c(Nc4cccc(NC(=O)Nc5cccc(F)c5)c4)ncnc3c2)cn1
[1]
  GI50: 2.88 µM
  TGI: 12.3 µM
[2]
  GI50: 2.23 µM
  TGI: 9.08 µM
[3]
  GI50: 1.97 µM
  TGI: 12.6 µM
[4]
  GI50: 6.22 µM
  TGI: 24.3 µM
[5]
  GI50: 0.0554 µM
  TGI: 2.21 µM
[6]
  GI50: 1.5 µM
  TGI: 9.79 µM
[7]
  GI50: 2.04 µM
  TGI: 7.9 µM
[8]
  GI50: 10.8 µM
  TGI: > 100 µM
[9]
  GI50: 1.24 µM
  TGI: > 100 µM
[10]
  GI50: 3.21 µM
  TGI: 15 µM

## COC(=O)[C@@]12C(=O)C=CC(=O)[C@@H]1C1C(=CC2COC(C)=O)O[C@@H]2OC3(CCCCC3)O[C@H]12 (stereo partly specified)
[1]
  TGI: 39.9 µM
[2]
  TGI: 21.2 µM
[3]
  TGI: 19.3 µM
[4]
  TGI: 32.8 µM
[5]
  TGI: 24.7 µM
[6]
  TGI: 31.6 µM
[7]
  TGI: 15.5 µM
[8]
  TGI: 28.7 µM
[9]
  TGI: > 100 µM
[10]
  TGI: 25.9 µM

## Cc1ccc([N+](=O)[O-])cc1NC(=O)Nc1cccc(F)c1
[1]
  GI50: 13.3 µM
  TGI: 96.6 µM
[2]
  GI50: 3.46 µM
  TGI: 15.2 µM
[3]
  GI50: 4.35 µM
  TGI: > 100 µM
[4]
  GI50: 3.68 µM
  TGI: > 100 µM
[5]
  GI50: 7.2 µM
  TGI: 33.6 µM
[6]
  GI50: 7.92 µM
  TGI: 45.3 µM
[7]
  GI50: 3.53 µM
  TGI: > 100 µM
[8]
  GI50: 3.37 µM
  TGI: > 100 µM
[9]
  GI50: 5.63 µM
  TGI: 64.6 µM
[10]
  GI50: 4.55 µM
  TGI: > 100 µM

## CN(C)CCOc1ccc(-c2nc(-c3ccc4c(c3)CC/C4=N\O)c(-c3ccncc3)[nH]2)cc1
[1]
  GI50: 3.27 µM and 1.63 µM
  TGI: 7.26 µM and 4.88 µM
[2]
  GI50: 0.71 µM and 1.15 µM
  TGI: 4.29 µM and 24.1 µM
[3]
  GI50: 0.127 µM and 0.29 µM
  TGI: 4.53 µM and 3.49 µM
[4]
  GI50: 4.7 µM and 9 µM
  TGI: 11 µM and 38.4 µM
[5]
  GI50: 4.74 µM and 4.07 µM
  TGI: 9.3 µM and 7.77 µM
[6]
  GI50: 3.96 µM and 25.7 µM
  TGI: 9.4 µM and 65.5 µM
[7]
  GI50: 3.29 µM and 1.84 µM
  TGI: 7.8 µM and 6.72 µM
[8]
  GI50: 14.1 µM and 62.7 µM
  TGI: 25 µM and > 100 µM
[9]
  GI50: 5.48 µM and 3.64 µM
  TGI: 16.6 µM and 14.5 µM
[10]
  GI50: 0.0177 µM and 0.0275 µM
  TGI: 2.55 µM and 0.876 µM

## CC(C)[C@]12O[C@H]1[C@@H]1O[C@]13[C@]1(O[C@H]1C[C@H]1C4=C(CC[C@@]13C)C(=O)OC4)[C@@H]2O
[1]
  GI50: 0.0168 µM
  TGI: 0.116 µM
[2]
  GI50: 0.0201 µM
  TGI: 0.107 µM and 0.0808 µM
[3]
  GI50: 0.029 µM
  TGI: > 100 µM
[4]
  GI50: 0.0166 µM
  TGI: 0.0994 µM and 0.283 µM
[5]
  GI50: 0.0146 µM
  TGI: 0.026 µM and 0.0358 µM
[6]
  TGI: 0.0554 µM and 0.0718 µM
[7]
  GI50: < 0.01 µM
  TGI: > 100 µM
[8]
  TGI: 0.0922 µM
[9]
  GI50: 0.00713 µM
  TGI: 0.0488 µM
[10]
  GI50: 0.011 µM
  TGI: 0.0241 µM and 0.026 µM

## FC(F)(F)Oc1cccc(-c2cnc3ccc(-c4ccncc4)nn23)c1
[1]
  GI50: 3.18 µM
  TGI: > 100 µM
[2]
  GI50: 1.8 µM
  TGI: 7.82 µM
[3]
  GI50: 1.34 µM
  TGI: > 100 µM
[4]
  GI50: 1.39 µM
  TGI: > 100 µM
[5]
  GI50: 1.13 µM
  TGI: 7.4 µM
[6]
  GI50: 1.21 µM
  TGI: 4.24 µM
[7]
  GI50: 0.518 µM
  TGI: > 100 µM
[8]
  GI50: 2.09 µM
  TGI: 95.5 µM
[9]
  GI50: 0.744 µM
  TGI: 11.8 µM
[10]
  GI50: 1.01 µM
  TGI: 6.17 µM

## COc1ccc2oc(=O)cc(C(c3ccc[nH]3)c3ccc[nH]3)c2c1
[1]
  GI50: 0.109 µM
  TGI: 6.05 µM
[2]
  GI50: 0.0985 µM
  TGI: 2.83 µM
[3]
  GI50: 0.104 µM
  TGI: 0.659 µM
[4]
  GI50: 0.278 µM
  TGI: 21.5 µM
[5]
  GI50: 0.0937 µM
  TGI: 0.451 µM
[6]
  GI50: 0.171 µM
  TGI: 50.5 µM
[7]
  GI50: 0.328 µM
  TGI: 10.6 µM
[8]
  GI50: 0.0651 µM
  TGI: 5.91 µM
[9]
  TGI: 3.79 µM
[10]
  GI50: 0.152 µM
  TGI: 14 µM
